The IC50 is the concentration needed to halve the response being measured. By MIC is commonly meant the smallest concentration in the dilution series that meets the test's criterion for growth inhibition. Usually viability stands for the share of living cells, or the viability signal relative to a control.

Series [1] concerns bovine brain tubulin. As to the kind of experiment: Inhibition of tubulin polymerization. In kind it is biochemical. The settings on record: 10 μM bovine brain tubulin, 20 min; read-out: IC50 ± SD Tubulin (inhibition of tubulin polymerization). The procedure: Compounds with a certain concentration were pre-incubated with 10 μM bovine brain tubulin in glutamate buffer at 30 °C, and then cooled to 0 °C. The absorbance of 350 nm was immediately measured at 30 °C, as soon as the addition of 0.4 mM GTP. The absorbance would be detected continuously for 20 min. The IC50 was defined as the compound concentration that inhibited tubulin polymerization by 50% during 20 min.

Series [2] has as its system E. coli (ATCC 8739). As to the kind of experiment: MIC, broth microdilution. In kind it is cell-based. The settings on record: Escherichia coli, read-out: MIC E. coli (ATCC 8739).
Series [3] relates to P. aeruginosa (DSM 939). Nature of the series: MIC, broth microdilution. In kind it is cell-based. The settings on record: Pseudomonas aeruginosa, read-out: MIC P. aeruginosa (DSM 939). In general terms: Broth dilution looks for growth in wells or tubes with falling amounts of substance.
For series [4], the system named is S. aureus (ATCC 6538). Nature of the series: MIC, broth microdilution. In kind it is cell-based. Particulars: Staphylococcus aureus, read-out: MIC S. aureus (ATCC 6538).
Series [5] deals with T1, FtsZ (Staphylococcus aureus, UniProt P0A031).
T1 construct: His tag; made in house; host or cells: E. coli BL21(DE3)
T1 sequence (P0A031 1-390): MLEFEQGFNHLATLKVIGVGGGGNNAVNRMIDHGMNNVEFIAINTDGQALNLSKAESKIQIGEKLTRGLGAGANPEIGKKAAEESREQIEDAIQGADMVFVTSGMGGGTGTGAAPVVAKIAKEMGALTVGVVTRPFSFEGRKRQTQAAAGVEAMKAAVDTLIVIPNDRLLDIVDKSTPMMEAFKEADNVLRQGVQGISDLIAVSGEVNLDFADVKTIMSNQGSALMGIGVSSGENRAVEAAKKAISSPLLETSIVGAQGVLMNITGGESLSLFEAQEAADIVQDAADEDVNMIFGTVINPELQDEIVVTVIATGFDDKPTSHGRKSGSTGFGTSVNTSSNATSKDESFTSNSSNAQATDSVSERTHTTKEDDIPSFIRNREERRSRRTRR
Nature of the series: Sedimentation assay of FtsZ polymerization. In kind it is biochemical. The settings on record: 50 μM compound, 5 μM FtsZ, 37 °C 30 min. The procedure: Sedimentation assay was also conducted for the influence of compounds on FtsZ polymerization. FtsZ (5 μM) was polymerized in a buffer containing 25 mM Pipes buffer (pH 6.8) and 3 mM MgSO4 in the […] of DMSO or compounds (50 μM). After the addition of 4 mM GTP, the sample was instantly placed at 37 °C for 30 min. Then, the polymers were collected by centrifuging for 30 min at 25 °C. The protein concentration in the supernatant was determined using the Bradford quantification method, with bovine serum albumin (BSA) as the standard. The experiment was performed in triplicate, and the average absorbance is shown.

The test system of series [6] is B. subtilis (CICC 21164). Nature of the series: MIC, broth microdilution. In kind it is cell-based. The settings on record: Bacillus subtilis, 18 h, read-out: MIC B. subtilis (CICC 21164). How it is done:
MIC assays were carried out by employing the broth microdilution method in accordance with Clinical and Laboratory Standards Institute (CLSI) guidelines. E. coli BNCC337004, S. aureus BNCC336423, P. aeruginosa BNCC337099, and B. subtilis CICC 21164 were applied for the MIC detection. Mueller–Hinton broth (MHB) was used in bacterial culture, and log-phase bacteria were diluted into a 0.5 McFarland Standard suspension, which was then diluted 1000 times again. Subsequently, 100 μL of the obtained bacterial suspension was placed into each well of 96-well microtiter plates, along with 2-fold serial dilutions of compounds (512, 256, 128, 64, 32, 16, 8, 4, 2, 1, 0.5, 0 μM). The microtiter plates were incubated aerobically for 18 h at 37 °C. The MIC was defined as the lowest drug concentration at which no visible turbidity was observed. All experiments are conducted in three parallel.

The test system of series [7] is S. aureus BNCC336423. Nature of the series: Time–killing curve. In kind it is cell-based. The settings on record: S. aureus BNCC336423, concentrations of 4× the MIC or greater. How it is done: S. aureus BNCC336423 was employed for the time–killing curve study. […] Meanwhile, DMSO with an equivalent volume was added to the vehicle control tube. The cultures were then subjected to shaking incubation at 37 °C. Subsequently, cultures were taken out at predetermined time intervals (0, 1, 2, 4, 6, 8, and 24 h), centrifuged at 16,000×g for 3 min, and diluted to an appropriate multiple. These diluted samples were then plated onto Tryptic Soy Agar (TSA) plates for enumeration. Following a 24 h incubation period at 37 °C, colonies on the TSA plates were counted for the CFU/mL, thereby providing insights into the time-dependent bactericidal activity of the tested compounds.

In series [8] the target is T2, S. aureus FtsZ (Staphylococcus aureus, UniProt P0A031).
T2 construct: His tag; made in house; host or cells: E. coli BL21(DE3)
T2 sequence (P0A031 1-390): T1 sequence (P0A031 1-390)
As to the kind of experiment: FtsZ polymerization assay (A340). In kind it is biochemical. Particulars: 50 μM compound, 5 µM FtsZ, 4 mM GTP, vs DMSO. The procedure: The effect of compounds on S. aureus FtsZ polymerization was monitored by employing a microtiter plate-based spectrophotometric assay method, and the reactions were conducted in flat-bottomed 96-well microtiter plates. The degree of FtsZ polymerization was reflected by the corresponding changes in absorbance at 340 nm (A340). […] The polymerization reaction began immediately once 4 mM GTP was added, and then the polymerization was continuously monitored at 25 °C for 60 min by measuring A340 in BioTek-Synergy4 multifunctional enzyme-linked immunosorbent assay (ELISA) reader.

Series [9] is described as follows: Cytotoxicity, CCK8. In kind it is cell-based. Particulars: human. How it is done:
The absorbance of 450 nm was measured in an ELISA reader (BioTek-Synergy 4, USA). Then, cell viability was calculated, and the corresponding images were drawn with GraphPad Prism 9.

Series [10] has as its system E. coli. Nature of the series: In vivo antibacterial activity, mouse peritoneal infection. Set-up: species or system CD-1 male mice. An excerpt:
SPF grade CD-1 male mice weighing 30 ± 3 g were purchased from Shanghai Slake Experimental Animal Co., Ltd. (Shanghai, China). […] Immediately following this, the mice were intraperitoneally injected with the test compounds. Each experimental group consisted of five mice, with each compound being tested at two distinct concentration gradients (determined based on the minimum inhibitory concentration, MIC). A separate group received physiological saline as a negative control. The subsequent assessment focused on evaluating the therapeutic potential of these drugs against bacterial infections. On the first and third days post-administration, 2 mL of sterile physiological saline was injected into the peritoneal cavity of each mouse. After a gentle two-minute dilution under sterile conditions, the abdominal fluid was extracted for bacterial enumeration using the plate counting method. Furthermore, the clinical manifestations of each mouse group, encompassing mental status, appetite, and other relevant parameters, were meticulously observed over a seven-day period. On the seventh day, the mice were euthanized, and a thorough macroscopic examination was conducted to assess the pathological changes in various vital organs.

Series [11] relates to B. subtilis. Nature of the series: Phase-contrast microscopy, cell division inhibition. In kind it is cell-based. The settings on record: 64 μM, 4 h. The procedure: Cell Division Inhibitory Screening Assay Cell division inhibitory activity of compounds was conducted as below. […] Afterwards, 1 mL of the sample was centrifuged at 15,000× g for 3 min at room temperature, and the bacterial pellets were washed with 1 mL of PBS before re-centrifugation. The final bacterial pellets obtained were resuspended in 5 mL PBS. 20 μL of bacterial suspension was transferred to slides for microscopy. Cell morphology was estimated by using the phase-contrast method of Olympus IX71 microscopy (Olympus Corporation, Tokyo, Japan) with 400× magnification.

Where [12] appears, read: ATCC8739, broth microdilution, 18 h, 37 °C.
[13] abbreviates: DSM939, broth microdilution, 18 h, 37 °C.
[14] abbreviates: ATCC6538, broth microdilution, 18 h, 37 °C.
Setting [15] is: 293T cells (renal epithelial cells), read-out: cell viability HT293 (293T).
[16] abbreviates: LO2 cells (normal hepatic cells), read-out: cell viability LO2.

Each structure is given as a SMILES string. Converted amounts (≈) assume the structure as drawn. Counter-ions that a name gives are not always drawn. Like-named read-outs stand apart in the source and are kept apart here.

For `COc1ccc(/C=C\c2cc(OC)c(OC)c(OC)c2)cc1O` [CA-4, Combretastatin A4], in series [1], the IC50 came to […].

Regarding `CC[C@]1(O)C[C@H]2CN(CCc3c([nH]c4ccccc34)[C@@](C(=O)OC)(c3cc4c(cc3OC)N(C=O)[C@H]3[C@@](O)(C(=O)OC)[C@H](OC(C)=O)[C@]5(CC)C=CCN6CC[C@]43[C@@H]65)C2)C1` [Compound 6, Vincristine sulfate], the MIC stood at 64 µM in series [2] (setting [12]); 32 µM in series [3] (setting [13]); 8 µM in series [4] (setting [14]); 16 µM in series [6] (broth microdilution, 37 °C). For the same compound, the “effect on FtsZ sedimentation (polymerization amount)” value (“effect on FtsZ sedimentation” below) in [5] is listed as “negligible effects”.

Take `CN(C)c1ccc2c(c1)Sc1cc(N(C)C)ccc1N2` [Compound 33, Leucomethylene blue mesylate]: in [7], the “logs of kill in time–kill” value was 3 logs. Also, the MIC in series [2] (setting [12]) amounted to 32 µM; in [3] (setting [13]), 2 µM; in series [4] (setting [14]), 4 µM; in series [6] (broth microdilution, 37 °C) it was 64 µM. In addition, the “effect on FtsZ polymerization (A340)” value in series [8] is given as “minimal impact on the dynamics of FtsZ polymerization”. In addition, the “effect on FtsZ sedimentation” value in [5] is on record as “varying degrees of inhibition on FtsZ polymerization”. The figures for the viability at 12 h, 100 µM in series [9] (setting [15]) and in series [9] (setting [16]) were 80% and 65%, respectively. In addition, the IC50 in series [1] was 74.46 ± 0.25 µM.

Regarding `C[C@]12CC[C@@H]3c4ccc(OC(=O)N(CCCl)CCCl)cc4CC[C@H]3[C@@H]1CC[C@@H]2O` [Compound 56, Estramustine], the MIC stood at 128 µM (≈ 56.4 µg/mL) in series [2] (ATCC8739, 18 h); 32 µM (≈ 14.1 µg/mL) in series [3] (DSM939, 18 h); 128 µM (≈ 56.4 µg/mL) in [4] (ATCC6538, 18 h); 64 µM (≈ 28.2 µg/mL) in series [6]. Moreover, in [8], the “effect on FtsZ polymerization (A340)” value is on record as “minimal impact on the dynamics of FtsZ polymerization”. In addition, the “effect on FtsZ sedimentation” value in series [5] is listed as “negligible effects”. In addition, the viability at 12 h, 100 µM in [9] (read-out: cell viability HT293 (293T)) was found to be 98%; in series [9] (read-out: cell viability LO2), 99%. For the same compound, the 50% inhibitory concentration (IC50) in [1] was found to be 38.66 ± 0.28 µM.

For the compound `CC(C)CNc1ccnc(NCc2csc(-c3ccccc3)n2)n1` [Compound 60, KHS 101], the MIC was determined as 16 µM (≈ 5.43 µg/mL) in series [2] (setting [12]); 8 µM (≈ 2.72 µg/mL) in series [3] (setting [13]); 8 µM (≈ 2.72 µg/mL) in [4] (setting [14]); 64 µM (≈ 21.7 µg/mL) in [6] (broth microdilution, 37 °C). In addition, the “effect on FtsZ polymerization (A340)” value in series [8] is “apparent inhibitory tendencies towards FtsZ polymerization”. Also, in series [5], the “effect on FtsZ sedimentation” value is listed as “varying degrees of inhibition on FtsZ polymerization”. In addition, the viability at 12 h, 100 µM in series [9] (setting [15]) was 89%; in series [9] (setting [16]), 90%. The IC50 in series [1] came to 5.62 ± 0.12 µM.

With `CN(C)c1ccc2nc3ccc(=[N+](C)C)cc-3sc2c1` [Compound 71, Methylene Blue], the “logs of kill in time–kill” value in series [7] was 3 logs. Also, the MIC was 64 µM in series [2] (setting [12]); 64 µM in series [3] (setting [13]); 2 µM in series [4] (setting [14]); 32 µM in [6] (broth microdilution, 37 °C). Also, the “effect on FtsZ sedimentation” value in series [5] is listed as “negligible effects”.

`COc1ccc2cc3[n+](cc2c1OC)CCc1cc2c(cc1-3)OCO2` [Compound 82, Berberine]: the MIC was found to be 64 µM in series [2] (setting [12]); 8 µM in [3] (setting [13]); 4 µM in [4] (setting [14]); 64 µM in series [6] (broth microdilution, 37 °C). In [10] (mice i.p. E. coli, i.p. compound, days 1 and 3), the “bacterial count of peritoneal fluid” value was “substantially mitigated”. Further, the “clinical presentation of infected mice” value in [10] (seven-day observation) is reported as “exhibited vitality, maintained a healthy appetite”. Also, the “effect on FtsZ polymerization (A340)” value in series [8] is recorded as “robust inhibitory activity against FtsZ polymerization”. The “cell morphology of B. subtilis (elongation)” value in series [11] is on record as “varying degrees of elongation”. For the same compound, in series [5], the “effect on FtsZ sedimentation” value is listed as “varying degrees of inhibition on FtsZ polymerization”.
